In ChEMBL document CHEMBL1201862, “PubChem BioAssay data set” (2004):
Activity calls are given as the source filed them.

Assays:
[1] = cells; format: functional, cell-based
[2] = Trypanosoma cruzi growth suppression in host cells – NIH3T3 host cells, beta-gal luminescence, confirmation (AID 2044); format: functional, cell-based;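 note: intracellular parasites grown in NIH/3T3 mouse fibroblasts as host cells; luminescent beta-galactosidase reporter signal from transgenic T. cruzi replicating inside host cells; inhibitors lower the luminescence signal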
[3] = cells; format: functional, cell-based; remark: listed apart in the source
[4] = NIH3T3 cell viability loss – ATP luminescence, mouse fibroblasts, counter-screen, dose response (AID 2010); format: functional, cell-based;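 note: cells exposed to compound for about 90 hours before reading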
[5] = Luminescence Cell-Based Dose Retest to Confirm Inhibitors of Cancer Stem Cells. [Related pubchem assays (depositor defined):AID2717, AID2721]; format: functional; details: Homo sapiens
[6] = system: INS1; test: INS-1E survival protection against cytokine death – cell-based, luminescence, retest, dose response (AID 449756); format: functional; details: Rattus norvegicus, INS1;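 note: cell death triggered by IL-1 beta plus TNF-alpha plus IFN-gamma mixture; protective hits raise ATP signal compared with cytokine alone wells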
[7] = target: Cytochrome P450 2C9 (Homo sapiens, UniProt P11712)
Sequence of Cytochrome P450 2C9 (P11712 whole entry): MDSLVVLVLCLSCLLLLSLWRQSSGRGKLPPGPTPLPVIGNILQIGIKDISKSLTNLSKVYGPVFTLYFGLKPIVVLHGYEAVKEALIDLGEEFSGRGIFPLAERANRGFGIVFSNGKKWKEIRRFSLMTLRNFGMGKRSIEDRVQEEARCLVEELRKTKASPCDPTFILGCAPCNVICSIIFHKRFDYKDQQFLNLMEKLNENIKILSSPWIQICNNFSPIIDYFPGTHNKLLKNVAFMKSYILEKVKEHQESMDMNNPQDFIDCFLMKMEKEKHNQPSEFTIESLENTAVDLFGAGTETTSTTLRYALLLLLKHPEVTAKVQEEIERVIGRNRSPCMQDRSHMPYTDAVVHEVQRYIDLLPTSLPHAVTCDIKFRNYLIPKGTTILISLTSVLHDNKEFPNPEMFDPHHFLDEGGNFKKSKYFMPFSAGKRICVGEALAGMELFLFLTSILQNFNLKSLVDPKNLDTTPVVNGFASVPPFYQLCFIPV

[8] = target: T1, Cytochrome P450 1A2 (Homo sapiens, UniProt P05177);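 note: PubChem cytochrome P450 panel assay, CYP1A2 panel member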
T1 sequence (P05177 whole entry): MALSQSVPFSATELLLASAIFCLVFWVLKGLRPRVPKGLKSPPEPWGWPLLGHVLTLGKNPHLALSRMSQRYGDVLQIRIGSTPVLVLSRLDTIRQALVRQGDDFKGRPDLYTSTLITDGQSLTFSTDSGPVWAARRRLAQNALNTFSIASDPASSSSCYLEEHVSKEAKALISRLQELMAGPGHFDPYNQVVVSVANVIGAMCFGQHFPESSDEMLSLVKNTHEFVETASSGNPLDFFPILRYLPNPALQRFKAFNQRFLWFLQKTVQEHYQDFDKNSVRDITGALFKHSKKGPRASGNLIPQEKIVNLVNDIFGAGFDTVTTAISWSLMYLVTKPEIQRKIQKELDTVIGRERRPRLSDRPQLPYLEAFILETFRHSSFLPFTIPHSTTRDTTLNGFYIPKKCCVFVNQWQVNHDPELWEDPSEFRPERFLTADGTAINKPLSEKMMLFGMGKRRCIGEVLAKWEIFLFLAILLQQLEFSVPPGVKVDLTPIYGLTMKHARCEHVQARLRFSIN

[9] = target: T2, Zinc finger protein mex-5 (Caenorhabditis elegans, UniProt Q9XUB2); test: potency of MEX-5 RNA-binding blockers – biochemical, C. elegans, fluorescence polarization, dose response (AID 1960)
T2 sequence (Q9XUB2 whole entry): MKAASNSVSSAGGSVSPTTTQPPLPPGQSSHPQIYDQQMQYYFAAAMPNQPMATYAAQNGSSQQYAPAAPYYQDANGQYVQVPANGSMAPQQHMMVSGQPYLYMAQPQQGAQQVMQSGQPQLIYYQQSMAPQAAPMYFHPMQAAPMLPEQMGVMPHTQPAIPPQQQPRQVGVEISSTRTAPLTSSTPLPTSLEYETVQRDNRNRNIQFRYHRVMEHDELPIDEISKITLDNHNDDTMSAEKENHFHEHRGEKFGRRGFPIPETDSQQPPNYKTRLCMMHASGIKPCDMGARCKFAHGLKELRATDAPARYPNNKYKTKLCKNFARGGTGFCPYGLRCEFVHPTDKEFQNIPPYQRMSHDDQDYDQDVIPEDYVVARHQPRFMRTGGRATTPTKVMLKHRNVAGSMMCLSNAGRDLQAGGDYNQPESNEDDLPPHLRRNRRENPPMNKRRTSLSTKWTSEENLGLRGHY

[10] = target: T3, RNA-binding protein pos-1 (Caenorhabditis elegans, UniProt G5EF15); test: disruptors of C. elegans POS-1 RNA interaction – biochemical, fluorescence polarization, dose response (AID 1964);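 note: purified POS-1 fused to maltose binding protein made in E. coli; potency of compounds blocking POS-1 binding to fluorescent RNA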
T3 sequence (G5EF15 whole entry): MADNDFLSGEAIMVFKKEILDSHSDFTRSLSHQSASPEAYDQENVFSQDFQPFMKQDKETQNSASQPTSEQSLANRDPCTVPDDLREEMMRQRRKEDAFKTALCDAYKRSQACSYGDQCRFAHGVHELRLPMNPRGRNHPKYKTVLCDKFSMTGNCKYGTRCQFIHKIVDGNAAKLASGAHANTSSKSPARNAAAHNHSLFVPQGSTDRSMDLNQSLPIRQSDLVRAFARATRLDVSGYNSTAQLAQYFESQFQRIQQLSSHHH

[11] = target: T4, Corticotropin-releasing factor receptor 2/Corticotropin-releasing factor-binding protein (Homo sapiens, UniProt P24387+Q13324); test: Dose Response confirmation of uHTS hits for small molecule antagonists of the CRF-binding protein and CRF-R2 receptor complex.; format: functional; details: read-out: IC50_Mean
T4 sequence (Q13324 whole entry): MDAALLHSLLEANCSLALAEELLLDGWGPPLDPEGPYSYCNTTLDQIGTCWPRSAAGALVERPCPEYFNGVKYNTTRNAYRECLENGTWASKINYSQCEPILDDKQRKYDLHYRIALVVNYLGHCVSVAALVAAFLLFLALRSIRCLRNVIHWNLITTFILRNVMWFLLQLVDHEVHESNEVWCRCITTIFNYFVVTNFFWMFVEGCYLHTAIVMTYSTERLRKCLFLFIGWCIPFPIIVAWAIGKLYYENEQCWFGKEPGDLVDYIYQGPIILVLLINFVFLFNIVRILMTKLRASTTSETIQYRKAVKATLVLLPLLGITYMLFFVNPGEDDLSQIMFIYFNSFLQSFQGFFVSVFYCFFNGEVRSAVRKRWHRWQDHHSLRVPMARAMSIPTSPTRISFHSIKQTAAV
T4 sequence (P24387 whole entry): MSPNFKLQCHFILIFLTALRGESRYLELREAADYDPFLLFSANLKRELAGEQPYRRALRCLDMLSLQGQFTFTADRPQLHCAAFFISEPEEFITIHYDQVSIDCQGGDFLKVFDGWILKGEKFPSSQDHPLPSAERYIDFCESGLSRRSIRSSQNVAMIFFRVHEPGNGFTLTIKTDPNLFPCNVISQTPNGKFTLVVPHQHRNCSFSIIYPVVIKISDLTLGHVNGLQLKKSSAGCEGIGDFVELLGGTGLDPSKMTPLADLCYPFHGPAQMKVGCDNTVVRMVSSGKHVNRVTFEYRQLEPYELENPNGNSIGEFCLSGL

[12] = target: T4, Corticotropin-releasing factor receptor 2/Corticotropin-releasing factor-binding protein; test: activators of CRF receptor 2 with binding protein – uHTS hits, confirmation (AID 602473); format: functional; details: read-out: EC50_Mean
[13] = loss of viability in HepG2 cells – cell-based, CellTiter-Glo, cherry-picked, cytotoxicity control for Shn3 inhibitor project, dose response (AID 624134); format: functional
[14] = reduction of Shn3 3'UTR-driven luciferase in osteoblasts – cell-based, Clone20 osteoblasts, firefly luciferase, cherry-picked, dose response (AID 624132); format: functional;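 note: firefly luciferase luminescence from reporter carrying the Shn3 3'UTR in osteoblasts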
[15] = non-specific 3'UTR reporter inhibition in Clone20-Shn3RL – cell-based, Renilla luciferase, cherry-picked, counter-screen for Shn3 inhibitor project, dose response (AID 624133); format: functional
[16] = target: Cytochrome P450 3A4 (Homo sapiens, UniProt P08684);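 note: CYP3A4 tested as one member of a cytochrome P450 panel screen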
Sequence of Cytochrome P450 3A4 (P08684 whole entry): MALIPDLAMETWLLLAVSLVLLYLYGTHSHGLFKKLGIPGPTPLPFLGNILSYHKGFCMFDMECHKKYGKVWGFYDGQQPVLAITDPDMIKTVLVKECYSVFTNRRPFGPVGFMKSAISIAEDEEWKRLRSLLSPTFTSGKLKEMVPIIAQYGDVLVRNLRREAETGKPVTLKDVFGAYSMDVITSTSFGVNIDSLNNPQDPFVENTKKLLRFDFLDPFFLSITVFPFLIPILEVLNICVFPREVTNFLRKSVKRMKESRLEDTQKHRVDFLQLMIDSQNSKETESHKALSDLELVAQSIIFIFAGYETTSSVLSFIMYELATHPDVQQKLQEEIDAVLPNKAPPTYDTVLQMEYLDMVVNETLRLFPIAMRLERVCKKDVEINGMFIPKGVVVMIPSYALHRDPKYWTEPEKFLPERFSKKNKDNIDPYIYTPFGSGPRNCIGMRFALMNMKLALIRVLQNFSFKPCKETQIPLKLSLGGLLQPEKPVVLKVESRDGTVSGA

[17] = viability of uninfected HEp-2 cells – cell-based, HTS, cytotoxicity control for RSV inhibitor project, dose response (AID 2410); format: functional; details: human respiratory syncytial virus

For `Cc1ccc2nc(-c3ccccn3)c(Nc3ccccc3C)n2c1`, the EC50 [1] was > 350 µM (not active), the EC50 [2] was 1.74 µM (active) and the EC50 [3] was 18.6 µM (active). For the same compound, the EC50 [4] was 5.84 µM (active), the AC50 [5] was 5.42 µM (active) and the AC50 [6] was 6.06 µM (active).

With `CC(C)(C)c1ccc(Oc2ccc(N)cc2)cc1` the AC50 [5] was 1.85 µM (active).

With `CCOc1ccc(Cc2nc(C)c(CC(=O)N3CCOCC3)c(O)n2)cc1` the AC50 [7] was “inconclusive”.

In the case of `Cc1cccc(N=C(S)NCC(C)CSc2ccc(Cl)cc2)c1` (centres undefined), the AC50 [5] is reported as 5.75 µM (active).

In the case of `O=C(NCC1COc2ccccc2O1)C1CCN(S(=O)(=O)c2cccc3nsnc23)CC1` (centres undefined), the AC50 [7] is reported as “inconclusive”.

With `CC(=O)NCCNc1ncncc1-c1ccccc1C` the AC50 [7] was “inconclusive” and the AC50 [8] was 25.1 µM (inconclusive).

In the case of `N#Cc1c(-c2ccccc2Cl)c2c([nH]c1=O)-c1ccccc1OC2`, the EC50 [9] is reported as 38.8 µM (active) and the EC50 [10] is reported as > 300 µM (inconclusive).

With `COC(=O)C1=COC(C)C2CN3CCc4c([nH]c5cc(OC)c(OC)cc45)C3CC12` (centres undefined) the EC50 [9] was 14.4 µM (active) and the EC50 [10] was 15.5 µM (active).

In the case of `CCCCNC(=S)NNC(=O)c1cc(C)on1`, the EC50 [9] is reported as > 300 µM (not active) and the EC50 [10] is reported as > 300 µM (not active).

With `CCC(C)[C@H](NC(=O)N1CCn2c1nc1ccccc12)C(=O)NCc1ccc(OC)cc1` (some centres undefined) the IC50 [11] was > 47.1 µM (inactive) and the EC50 [12] was > 53 µM (inactive).

In the case of `CN1C(=O)C(=CNc2ccc(N3CCOCC3)cc2)C(=O)N(C)C1=S`, the EC50 [9] is reported as > 300 µM (inconclusive) and the EC50 [10] is reported as > 300 µM (not active).

For `CCN(CC)S(=O)(=O)c1ccc(C)c(NC(=S)N2CCN(C/C=C/c3ccccc3)CC2)c1`, the AC50 [13] was 67.5 µM (active), the AC50 [14] was 2.55 µM (active) and the AC50 [15] was 2.53 µM (active).

With `Cc1cc(C)c(NC(=O)c2ccc(CNS(=O)(=O)c3cc(C(F)(F)F)ccc3Cl)cc2)c(C)c1` the IC50 [11] was > 47.1 µM (inactive) and the EC50 [12] was > 53 µM (inactive).

With `O=S(=O)(NCc1cc(-c2ccccc2Cl)no1)c1ccc(Cl)cc1` the AC50 [16] was 20 µM (inconclusive) and the AC50 [7] was “inconclusive”.

In the case of `COC(=O)N/N=C(\C)c1cccs1`, the IC50 [11] is reported as > 47.1 µM (inactive) and the EC50 [12] is reported as > 53 µM (inactive).

For `Cc1ccc(C)n1CCN1CCN(CC(=O)Nc2cc(C(F)(F)F)ccc2Cl)CC1`, the AC50 [7] was “inconclusive”.

With `COc1ccc(C(=O)Nc2ccc(Nc3ccccc3)cc2)cc1[N+](=O)[O-]` the AC50 [5] was 2.69 µM (active) and the CC50 [17] was 12.2 µM (active).
